Assay results: patent US20090253634A1, “Methods and Compositions for the Treatment of Gastrointestinal Disorders” (MICROBIA, INC., priority 2005, published 2009)
Where two headings read alike, the source gives them in different places. Bridge positions count the residues as written; N and C are the ends. Peptide text beside a SMILES is read from it.

What was measured:
[1] = target: T1, GC-C receptors on the cell surface of human colonic cells (T84 cells) (Homo sapiens, UniProt P25092); assay: competitive radioligand-binding assay on T84 cells
T1 construct: 2.5×10^5 T84 cells (0.25 mg protein); host or cells: T84 human colonic cells
Procedure: The radiolabeled tracer used in these experiments was ^125I-SEQ ID NO:7. To determine binding constants, competitive inhibition of binding was used. T84 cells were cultured in T-150 plastic flasks in DMEM and Ham's F-12 medium containing 5% fetal bovine serum. Monolayers at 60-70% confluency (approximately 10^7 cells) were collected by gentle scraping followed by centrifugation, and washed twice in 50 mL of phosphate-buffered saline (PBS). The cells were resuspended in 1 mL DMEM containing 20 mM […] (Hepes), pH 7.0 and 0.5% bovine serum albumin (BSA). T84 cells were incubated with a constant amount of ^125I-SEQ ID NO:7 containing various concentrations of cold competitor. Free ^125I-SEQ ID NO:7 was separated from bound tracer by rapid suction filtration. The binding reactions were carried out in 1.5 mL microfuge tubes in 0.24 mL of DMEM/20 mM Hepes pH 7.0/0.5% BSA containing: 2.5×10^5 T84 cells (0.25 mg protein), 200,000 cpm ^125I-SEQ ID NO:7 (41 fmol, 170 pM), and 0.01 to 1,000 nM competitor. Binding assays at pH 5.0 were done in DMEM/20 mM 2-(N-morpholino) ethanesulfonic acid (Mes), pH 5.0. Binding assays in pH 8.0 were done in DMEM/20 mM Hepes/50 mM sodium bicarbonate pH 8.0. One sample contained no competitor (B0) and another contained no cells. After incubation at 37° C. for 1 h, the reaction mixtures were applied to Whatman GF/B glass-fiber filters by suction filtration. The filters were then rinsed with 10 mL ice-cold PBS buffer, inserted into plastic tubes, and added to 2 mL scintillation fluid. Radioactivity was measured in a LS 6500 liquid scintillation counter (Beckman-Coulter). The percent bound in each sample is calculated by the equation:
% B/B0=(sample cpm−no cells cpm)×100/(B0cpm−no cells cpm)
Competitive radioligand-binding curves were generated using the Graphpad PRISM™ computer program. […]

[2] = oral bioavailability in rats, LCMS detection; assay type: in vivo; conditions: for AUC / bioavailability: rat, plasma, 10 mg/kg; for bioavailability: oral, read-out: 6 h bioavailability determined by circulating plasma levels
Procedure: Similarly, oral bioavailabity was determined in rats using LCMS methodology. Rat plasma samples containing SEQ ID NO:3 and/or SEQ ID NO:6 were extracted using a Waters Oasis MAX 96 well solid phase extraction (SPE) plate. A 200 μL volume of rat plasma was mixed with 200 μL of ^13C9, ^15N—SEQ ID NO:3 in the well of a prepared SPE plate. The samples were drawn through the stationary phase with 15 mm Hg vacuum. All samples were rinsed with 200 μL of 2% ammonium hydroxide in water followed by 200 μL of 20% methanol in water. The samples were eluted with consecutive 100 μL volumes of 5/20/75 formic acid/water/methanol and 100 μL 5/15/80 formic acid/water/methanol. The samples were dried under nitrogen and resuspended in 100 μL of 20% methanol in water. Samples were analyzed by a Waters Quattro Micro mass spectrometer coupled to a Waters 1525 binary pump with a Waters 2777 autosampler. A 40 μL volume of each sample was injected onto a Thermo Hypersil GOLD C18 column (2.1×50 mm, 5 um). SEQ ID NO:3 and SEQ ID NO:6 were eluted by a gradient over 3 minutes with acetonitrile and water containing 0.05% trifluoroacetic acid. The Quattro Micro mass spectrometer was run in multiple reaction monitoring (MRM) mode using the mass transitions of 764>182 and 682>136 for SEQ ID NO:3 and SEQ ID NO:6 respectively. Using this methodology, SEQ ID NO:3 was dosed orally and by IV to rats at 10 mg/kg. […] To determine the oral biovailability of SEQ ID NO:6, this peptide was dosed to rats at 10 mg/kg. In this experiment, the limit of detection (LOD) for SEQ ID NO:6 was 0.78 nM. SEQ ID NO:6 was detected at all time points for the intravenous dose and was not detected beyond 240 min for the oral dose. For non-detected values, the LOD was used as an upper estimate of the concentration of SEQ ID NO:6. The calculated value for AUCp.o., (0-6h) was […] and AUCi.v., (0-6h) was 1,590,000 nM-min. The 6 h bioavailability of SEQ ID NO:6 determined by circulating plasma levels was 0.08%

T1 sequence (P25092 24-1073): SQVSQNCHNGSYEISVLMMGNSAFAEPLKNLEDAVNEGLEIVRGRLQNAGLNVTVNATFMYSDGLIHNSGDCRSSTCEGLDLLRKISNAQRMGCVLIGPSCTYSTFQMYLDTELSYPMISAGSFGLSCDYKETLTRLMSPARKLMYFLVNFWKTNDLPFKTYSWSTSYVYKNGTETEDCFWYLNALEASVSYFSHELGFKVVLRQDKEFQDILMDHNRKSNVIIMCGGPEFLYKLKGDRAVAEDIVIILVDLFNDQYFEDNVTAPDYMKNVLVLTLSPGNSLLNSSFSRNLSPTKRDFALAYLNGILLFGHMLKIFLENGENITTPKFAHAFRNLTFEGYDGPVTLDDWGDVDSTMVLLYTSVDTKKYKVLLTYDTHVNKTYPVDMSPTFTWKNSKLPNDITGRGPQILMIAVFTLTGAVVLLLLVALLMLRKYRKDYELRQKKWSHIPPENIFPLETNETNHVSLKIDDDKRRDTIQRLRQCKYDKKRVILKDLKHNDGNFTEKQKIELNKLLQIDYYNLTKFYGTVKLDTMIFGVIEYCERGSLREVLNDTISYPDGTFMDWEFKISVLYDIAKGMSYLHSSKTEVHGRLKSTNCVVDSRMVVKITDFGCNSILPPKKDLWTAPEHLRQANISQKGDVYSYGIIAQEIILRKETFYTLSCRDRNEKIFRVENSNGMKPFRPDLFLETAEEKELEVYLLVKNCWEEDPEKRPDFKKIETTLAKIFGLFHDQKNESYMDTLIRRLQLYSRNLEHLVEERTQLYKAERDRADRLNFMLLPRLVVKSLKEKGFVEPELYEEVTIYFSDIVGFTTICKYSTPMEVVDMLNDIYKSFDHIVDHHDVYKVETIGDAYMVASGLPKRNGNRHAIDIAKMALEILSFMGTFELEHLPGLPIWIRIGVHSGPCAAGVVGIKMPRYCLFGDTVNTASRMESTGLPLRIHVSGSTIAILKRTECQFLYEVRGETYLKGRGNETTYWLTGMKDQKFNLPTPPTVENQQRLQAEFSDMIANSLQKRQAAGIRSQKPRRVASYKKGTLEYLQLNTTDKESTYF

SMILES | effect of pH on binding to the high affinity site, Ki1 ([1]; pH 5, 7 and 8) | AUC ([2]; iv, rats, 10 mg/kg IV, LCMS, read-out: AUC of SEQ ID NO:3, intravenously administered (converted)) [µM·h] | bioavailability ([2]; rats, LCMS) [%] | AUC ([2]; po, rats, 10 mg/kg oral, LCMS, read-out: AUC of SEQ ID NO:3, orally dosed (converted)) [µM·h] | 6 h bioavailability when AUC values for SEQ ID NO:6 are included ([2]; rats, SEQ ID NO:3 10 mg/kg, LCMS) [%] | Ki [1] [nM] | Ki ([1]; read-out: Ki2 (low affinity site), pH 7.0, T84 cells, tracer 125I-SEQ ID NO:7) [nM] | AUC ([2]; iv, rats, SEQ ID NO:3 10 mg/kg IV, metabolite, read-out: AUC for SEQ ID NO:6 in SEQ ID NO:3 intravenously dosed rats (converted)) [µM·h] | AUC ([2]; iv, rats, SEQ ID NO:6 10 mg/kg intravenous, read-out: AUCi.v., (0-6h) (converted)) [µM·h] | AUC ([2]; po, rats, SEQ ID NO:3 10 mg/kg oral, metabolite, read-out: AUC for SEQ ID NO:6 in rats dosed orally with SEQ ID NO:3 (converted)) [µM·h] | AUC ([2]; po, rats, SEQ ID NO:6 10 mg/kg oral, LOD used for non-detected values, read-out: AUCp.o., (0-6h)) [µM·h] | detection as metabolite in plasma ([2]; rats dosed with SEQ ID NO:3) | last time detected in plasma after the oral dose ([2]; rats, SEQ ID NO:6 10 mg/kg oral, LOD 0.78 nM) [min]
C[C@@H]1NC(=O)[C@@H]2CCCN2C(=O)[C@H](CC(N)=O)NC(=O)[C@@H]2CSSC[C@H](N)C(=O)N[C@H]3CSSC[C@H](NC1=O)C(=O)N[C@@H]([C@@H](C)O)C(=O)NCC(=O)N[C@H](C(=O)N[C@@H](Cc1ccc(O)cc1)C(=O)O)CSSC[C@H](NC(=O)[C@H](Cc1ccc(O)cc1)NC(=O)[C@H](CCC(=O)O)NC3=O)C(=O)N2 [SEQ ID NO:3] (H-CCEYCCNPACTGCY-OH; disulfide 1-6, 2-10, 5-13; N-terminus and C-terminus assumed) | not affected by pH | 12.3 | 0.11 | 0.0129 | 0.13 | – | – | – | – | – | – | – | –
C[C@@H]1NC(=O)[C@@H]2CCCN2C(=O)[C@H](CC(N)=O)NC(=O)[C@@H]2CSSC[C@H](N)C(=O)N[C@H]3CSSC[C@H](NC1=O)C(=O)N[C@@H]([C@@H](C)O)C(=O)NCC(=O)N[C@H](C(=O)O)CSSC[C@H](NC(=O)[C@H](Cc1ccc(O)cc1)NC(=O)[C@H](CCC(=O)O)NC3=O)C(=O)N2 [SEQ ID NO:6] (H-CCEYCCNPACTGC-OH; disulfide 1-6, 2-10, 5-13) | – | – | 0.08 | – | – | 1.57 | 446 | 0.0597 | 26.5 | 0.0036 | < 0.0218 | detected in the plasma | ≤ 240
